Data on two substances can be found in patent publication US20220332839A1, “USE OF PRG4 TO TREAT CANCER” (Lubris LLC, priority 2019, published 2022).

Holding throughout (assay type): cell-based, human
Experiment [1] has as its system MDA-MB-231 cell-derived organoids. The experiment is described as follows: Three-dimensional Matrigel culture, proportion of spherical vs invasive organoids. As to the method: For three-dimensional culture assays, 50 μl of ice-cooled 33% growth factor-reduced Matrigel (Corning Incorporated, USA) in complete growth medium, consisting of DMEM containing 10% FBS, penicillin, streptomycin and amphotericin B (Invitrogen, Canada), was added per well of a 96-well flat bottom, ultra-low attachment plate (BD Biosciences, Canada) followed by storing the plate for 1 hour in a 5% CO2 humidified incubator at 37° C. to allow formation of a 1 mm-thick Matrigel bed in the well. Next, approximately 400 isolated MDA-MB-231 cells, suspended in 50 μl ice-cooled 50% Matrigel in complete growth medium, were layered on top of the Matrigel bed per well of the 96-well plate and incubated inside 5% CO2 humidified incubator at 37° C. One hour post addition and 37° C. incubation of Matrigel-cells suspension, 50 μl of complete growth medium was added to cover the solidified Matrigel-cells mixture. The following day and, every third day, the three-dimensional cultures received 50 μl of fresh complete growth medium without or with specified reagents as listed in the figure descriptions. On Day 8 of culture, differential interference contrast (DIC) images were captured of 8 representative organoids from each well, using light microscopy at 30× objective (Olympus IX70, Canada). […] Number of smooth surfaced organoids without any protrusions, designated as “spherical” were counted out of eight representative images in each well and then percentage of spherical organoids in each condition were plotted in bar graphs. Each experiment was performed at least three independent times for statistical analyses.

Experiment [2] has the same test system. The experiment is described as follows: Laminin/actin fluorescence staining of 3D organoids. As to conditions: 8 day old organoids; absence or presence of TGFβ. As to the method: For immunofluorescence analysis of 3D-organoids, 600 MDA-MB-231 cells were grown within 80 μL of 50% Matrigel on top of 80 μL of 33% Matrigel coat in each well of ultra-low attachment 8-well chamber slides (Millipore-Sigma, USA). After DIC imaging on Day 8, the live multicellular structures were fixed with 4% formaldehyde, followed by permeabilization using 0.5% ice-cold Triton X-100 solution and blocking using 10% bovine serum albumin (BSA) in phosphate-buffered saline (PBS). For immunofluorescence analysis of monolayer cell culture, cells were seeded onto wells of a Falcon 8-well chamber culture slides (Corning Incorporated, USA), followed by fixing and permeabilization as described for the 3D cultures, and blocking with 5% BSA and 5% calf serum in PBS. Laminin and CD44 in cells were visualized by subjecting the three-dimensional or monolayer cultures to indirect immunofluorescence using a rat anti-laminin antibody (Abcam, Canada) and rat anti-CD44 antibody (Thermo Fisher, Canada) as the primary antibody, respectively, and Alexa 647-conjugated anti-rat IgG (ThermoFisher, Canada) as the secondary antibody. Actin in cells was visualized by incubating the fixed cultures with tetramethylrhodamine isothiocyanate (TRITC)-conjugated phalloidin (Millipore-Sigma, Canada). The DNA binding dye bisbenzimide (Hoechst 33342; Invitrogen, Canada) was used to detect nuclei. […]

A further experiment has as its system 3TP-Lux reporter. The experiment is described as follows: 3TP-Lux luciferase reporter assay. The conditions noted are these: 100 pM TGFβ. As to the method:
MDA-MB-231 cells were seeded in 24-well plates at approximately 6×10^4 cells/well one day prior to transfections. Cells were co-transfected with the PAI1-promoter-driven firefly luciferase Reporter (3TP-Lux) and the CMV-Renilla luciferase control reporter constructs. 18 h post transfection, cells were serum-starved (0.2% FBS containing DMEM) for 4 h and then incubated in fresh low-serum (0.2% FBS containing DMEM) containing media in the absence or presence of 100 pM TGFβ, 100 μg/mL rhPRG4 alone or together and left overnight. Lysates were prepared and analyzed for luciferase activity using a commercially available dual luciferase assay kit (Promega, Canada). Arbitrary luciferase activity (relative light units) values were normalized to Renilla luciferase activity to account for variations in transfection efficiency. For each transfection, percent increase of PAI1 promoter driven luciferase reporter gene expression was also determined and expressed relative to luciferase activity of the respective basal condition lysates. Each experimental condition was carried out in triplicate.
(A reporter such as luciferase makes a cellular process visible.)

The next experiment concerns CD44. Nature of the experiment: CD44 protein abundance in MDA-MB-231 cells (immunoblot, immunofluorescence). The conditions noted are these: for protein abundance of CD44, immunoblotting: 100 pM TGFβ, 100 μg/mL rhPRG4 in the absence or presence of TGFβ; for CD44 immunostaining signal in organoids: 8 day-old organoids, absence or presence of TGFβ. As to the method: For immunofluorescence analysis of 3D-organoids, 600 MDA-MB-231 cells were grown within 80 μL of 50% Matrigel on top of 80 μL of 33% Matrigel coat in each well of ultra-low attachment 8-well chamber slides (Millipore-Sigma, USA). After DIC imaging on Day 8, the live multicellular structures were fixed with 4% formaldehyde, followed by permeabilization using 0.5% ice-cold Triton X-100 solution and blocking using 10% bovine serum albumin (BSA) in phosphate-buffered saline (PBS). For immunofluorescence analysis of monolayer cell culture, cells were seeded onto wells of a Falcon 8-well chamber culture slides (Corning Incorporated, USA), followed by fixing and permeabilization as described for the 3D cultures, and blocking with 5% BSA and 5% calf serum in PBS. Laminin and CD44 in cells were visualized by subjecting the three-dimensional or monolayer cultures to indirect immunofluorescence using a rat anti-laminin antibody (Abcam, Canada) and rat anti-CD44 antibody (Thermo Fisher, Canada) as the primary antibody, respectively, and Alexa 647-conjugated anti-rat IgG (ThermoFisher, Canada) as the secondary antibody. Actin in cells was visualized by incubating the fixed cultures with tetramethylrhodamine isothiocyanate (TRITC)-conjugated phalloidin (Millipore-Sigma, Canada). The DNA binding dye bisbenzimide (Hoechst 33342; Invitrogen, Canada) was used to detect nuclei. For CD44 knockdown analysis, the vector or CD44 shRNA transfected cells were identified by GFP signal. Immunofluorescence images were captured using an epifluorescence microscope with a 40× objective lens (Olympus Bx WI Confocal Microscope, Canada). Exposure times for laminin, actin, nuclei and GFP-specific signals were kept constant in each experiment. For each condition, 3 colonies/fields per experiment were captured, which were chosen as representative of the stained cells within each slide per experiments. Each experiment was repeated two independent times.
Cells were washed with PBS to remove all growth media. Appropriate volume of TNTE lysis buffer (50 mM Tris, 150 mM NaCl, 1 mM EDTA, 0.5% [v/v] Triton-X-100) containing protease and phosphatase inhibitors, was added to the cell monolayer and incubated at 4° C. under vigorous shaking for 20 minutes. Lysates were then collected in microcentrifuge tubes and centrifuged at 13,000 g for 10 minutes at 4° C. 5 μL of the lysate were subjected to protein concentration determination using Bradford-based protein assays (Bio-Rad Laboratories, Canada). Lysates were boiled for 3 minutes at 95° C. in dithiothreitol (DTT)-containing Laemmli sample buffer. […] Densitometric analyses were performed using Quantity One software (Bio-Rad Laboratories, Canada).
(Immunoblotting shows a protein as a band on a membrane.)

“TGFβ: recombinant human mature transforming growth factor beta (R&D systems) [reference compound]”: the “effect of TGFβ on LMWHA-induced invasive growth” value in experiment [1] (100 pM TGFβ with LMWHA) is reported as “further enhanced the ability of LMWHA to induce invasive growth”. In addition, in experiment [1] (100 pM TGFβ, LMWHA 10, 100 or 400 μg/mL, 8-day), the “invasive growth of organoids, stimulus alone” value is given as “promoted an invasive growth”. In addition, in experiment [2], the “basal lamina (laminin) status and actin organization” value is recorded as “disrupted basement membrane organization”. Besides, the “3TP-Lux reporter activity, TGFβ alone” value in the experiment on 3TP-Lux reporter is reported as “significant induction of 3TP-Lux reporter activity”. Moreover, in the experiment with CD44, the “protein abundance of CD44, immunoblotting” value is on record as “promoted the protein abundance of CD44” and the “CD44 immunostaining signal in organoids” value is recorded as “enhanced the CD44-immnostaining signal”.
“rhPRG4: full-length recombinant human PRG4 (lubricin) glycoprotein produced by CHO-M cells; residues 25-1404 of SEQ ID NO:1”: the “TGFβ or LMWHA-induced invasive growth, vector control transfected cells” value in experiment [1] (100 pM TGFβ or 400 μg/mL LMWHA, 100 μg/mL rhPRG4) is “significantly reversed”. The “TGFβ-induced invasive growth of organoids” value in experiment [1] (100 pM TGFβ, 8-day, rhPRG4 0.1, 10, 100 μg/mL, KI 10 μM, 4-MU 0.5 mM) was “drastically repress TGFβ-induced invasiveness”. For the same substance, in experiment [1] (0.5 mM 4-MU, 400 μg/mL LMWHA, 100 μg/mL rhPRG4), the “LMWHA-induced invasive growth of 4-MU-treated organoids” value is listed as “suppressed LMWHA-induced invasive growth”. For the same substance, in experiment [1] (LMWHA 10-400 μg/mL, 100 μg/mL rhPRG4, KI 10 μM), the “LMWHA-induced invasive growth of organoids” value is “suppressed the ability of LMWHA to promote the invasive growth”. Moreover, in experiment [1] (LMWHA 100 or 400 μg/mL, 100 pM TGFβ, CD44 antibody 2.5 μg/mL, rhPRG4 100 μg/mL), the “TGFβ and LMWHA-induced invasive growth of organoids” value was “suppressed TGFβ and LMWHA-induced invasive growth”. Further, the “TGFβ-induced invasive growth, rhPRG4 applied to the Matrigel prior to culture” value in experiment [1] (Matrigel mixed with 100 μg/mL rhPRG4, 100 pM TGFβ) is “sufficient to suppress TGFβ-induced invasive growth”. In addition, the “invasive growth promoted by overexpressed CD44/FLAG” value in experiment [1] (absence or presence of TGFβ or LMWHA, 100 μg/mL rhPRG4) is on record as “suppressed the ability of overexpressed CD44 to promote invasive growth”. Also, the “basal lamina (laminin) status and actin organization” value in experiment [2] was “promoted cortical actin organization and solid laminin ring formation”. In addition, the “TGFβ-induced 3TP-Lux reporter activity” value in the experiment on 3TP-Lux reporter (100 μg/mL rhPRG4, overnight, 0.2% FBS) was “did not alter TGFβ-induced 3TP-Lux reporter activity”. Besides, in the experiment with CD44, the “protein abundance of CD44, immunoblotting” value is reported as “reduced the protein abundance of CD44” and the “CD44 immunostaining signal in organoids” value is reported as “reduced this signal”.
